What was measured:
Assay type in all cases: biochemical
[1] = biological target: T1, Lp-PLA2 (Homo sapiens, UniProt Q13093); experiment: Lp-PLA2 activity measurement in serum/plasma with reagents of the invention (PAF substrate, lyso-PAF-PLD, choline oxidase, peroxidase colorimetry); details: Example 9; for Lp-PLA2 activity value / absorbance change per minute (sensitivity): 10 mM substrate in R2; for Relative activity: PAF(C16) = 100
T1 construct: Individual serum No. 16, individual serum No. 78; from tissue; host or cells: serum and plasma (individual sera, pooled sera, heparin and citrated pooled plasma)
T1 sequence (Q13093 22-441): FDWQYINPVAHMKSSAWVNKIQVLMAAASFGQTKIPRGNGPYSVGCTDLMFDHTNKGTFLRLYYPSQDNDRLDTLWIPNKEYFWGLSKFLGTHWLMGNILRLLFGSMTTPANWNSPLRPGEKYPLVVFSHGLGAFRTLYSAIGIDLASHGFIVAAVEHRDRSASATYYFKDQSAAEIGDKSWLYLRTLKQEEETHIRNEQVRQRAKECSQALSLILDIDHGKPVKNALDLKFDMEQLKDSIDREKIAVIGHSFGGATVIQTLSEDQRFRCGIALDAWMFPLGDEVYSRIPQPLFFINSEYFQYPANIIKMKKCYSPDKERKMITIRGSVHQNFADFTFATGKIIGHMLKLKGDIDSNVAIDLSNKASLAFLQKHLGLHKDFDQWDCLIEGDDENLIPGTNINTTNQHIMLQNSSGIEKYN
Method: Unless otherwise specified, in these examples the Method 1 described under 1) below is used for calculating Lp-PLA2 activity values. In these examples, (nmol/min/mL) is sometimes expressed as (U/L).
This is calculated by the following formula based on the absorbance change per minute (ΔmAbs/min) as calculated from absorbance at the measuring points and the millimolar extinction coefficient (ε=36) of TODB at 546 nm.
(§1) 4 μL of the sample was mixed with 160 μL of the R1 reagent, and incubated for 5 minutes at 37° C. (measuring points 1 to 16), after which 40 μL of the R2 reagent was added to initiate a reaction (measuring point 17). The absorbance of water (blank) at the same measuring points was subtracted from the absorbance of the sample about 3.6 to 4.5 minutes after the reaction was initiated by addition of the R2 reagent (measuring points 30 to 33) to calculate the absorbance change per minute (ΔmAbs/min), and the Lp-PLA2 activity value (nmol/min/mL) was calculated according to the previous formula.
[…] was mixed with 150 μL of the R1 reagent, and incubated for 5 minutes at 37° C. (measuring points 1 to 15), after which 100 μL of the R2 reagent was added to initiate a reaction (measuring point 16). The absorbance of water (blank) at the same measuring points was subtracted from the absorbance of the sample about 2 to 3 minutes after the reaction was initiated by addition of the R2 reagent (measuring points 23 to 26) to calculate the absorbance change per minute (ΔmAbs/min), and the Lp-PLA2 activity value (nmol/min/mL) was calculated according to the previous formula. The values for absorbance change per minute (sensitivity) (ΔmAbs/min) and the Lp-PLA2 activity values (nmol/min/mL) at each pH are shown in Tables 1 and 2.
(§2) 5 μL of sample was mixed with 150 μL of the R1 reagent, and incubated for 5 minutes at 37° C. (measuring points 1 to 15), after which 100 μL of the R2 reagent was added to initiate a reaction (measuring point 16). The absorbance of water (blank) at the same measuring points was subtracted from the absorbance of the sample about 3.5 to 4.5 minutes after the reaction was initiated by addition of the R2 reagent (measuring points 27 to 30) to calculate the absorbance change per minute (ΔmAbs/min), and the Lp-PLA2 activity value (nmol/min/mL) was calculated according to the previous formula. The values for absorbance change per minute (sensitivity) (ΔmAbs/min) and Lp-PLA2 activity (nmol/min/mL) and the relative activity for each substrate given 100 as the Lp-PLA2 activity value for PAF(C16) are shown in Tables 19 to 24.
Each sample was mixed with 160 μL of the R1 reagent, and incubated for 5 minutes at 37° C., (measuring points 1 to 15), after which 40 μL of the R2 reagent was added to initiate the reaction (measuring point 16). The absorbance of water (blank) at the same measuring points was subtracted from the absorbance of the sample about 3.5 to 4.5 minutes after the reaction was initiated by addition of the R2 reagent (measuring points 27 to 30) to calculate the absorbance change per minute (ΔmAbs/min), and the Lp-PLA2 activity value (nmol/min/mL) was calculated according to the previous formula. […]
as §1, with “(measuring” for “4 μL of the sample was mixed with 160 μL of the R1 reagent, and incubated for 5 minutes at 37° C. (measuring”, “100” for “40”, “3.5” for “3.6”, “29” for “30”, “32)” for “33)”

[2] = biological target: T2, rLp-PLA2 (Homo sapiens, UniProt Q13093, I42M); experiment: Lp-PLA2 activity measurement with reagents of the invention, recombinant Lp-PLA2 as sample; details: Example 9, sample rLp-PLA2 (0.017 mg/mL); for Lp-PLA2 activity value / absorbance change per minute (sensitivity): 10 mM substrate in R2; for Relative activity: PAF(C16) = 100
T2 construct: histidine tag (from vector pET-19b) (N); made in house; host or cells: E. coli BL21(DE3), plasmid Lp-PLA2/pET-19b
T2 sequence (Q13093 42-441 I42M): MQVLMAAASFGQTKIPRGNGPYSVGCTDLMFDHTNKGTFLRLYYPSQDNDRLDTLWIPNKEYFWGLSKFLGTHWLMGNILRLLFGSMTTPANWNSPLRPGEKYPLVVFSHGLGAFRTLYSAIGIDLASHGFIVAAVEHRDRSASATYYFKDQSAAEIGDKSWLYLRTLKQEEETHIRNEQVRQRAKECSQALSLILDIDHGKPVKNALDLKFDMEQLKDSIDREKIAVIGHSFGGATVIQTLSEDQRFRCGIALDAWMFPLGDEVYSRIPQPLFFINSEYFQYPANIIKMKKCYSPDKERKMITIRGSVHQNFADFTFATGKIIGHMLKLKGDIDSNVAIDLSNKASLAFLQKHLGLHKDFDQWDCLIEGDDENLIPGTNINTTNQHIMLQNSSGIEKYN
Method: The recombinant Lp-PLA2 (rLp-PLA2) used in these examples was prepared in accordance with Reference Examples 4 to 6 based on the information disclosed in J. Biol. Chem., Oct. 27, 1995, No. 43, Vol. 270, pp. 25481-25487.
A gene optimized for E. coli (matched to E. coli codon usage) was synthesized (GenScript (NJ, USA)) based on the sequence data for a human Lp-PLA2 gene. Using the synthesized DNA as a template, a roughly 1200 bp PCR product was obtained by PCR using KOD FX (Toyobo Co., Ltd.) using as the sense primer the nucleotide sequence of SEQ ID NO: 5 in which the 42nd isoleucine was changed to the sequence of the initial methionine, with the nucleotide sequence of SEQ ID NO: 6 as the antisense primer. The resulting PCR product was digested with NdeI (Takara Bio Inc.) and BamHI (Takara Bio Inc.), and inserted into the NdeI-BamHI site of the expression vector pET-19b (Novagen) to obtain an Lp-PLA2/pET-19b expression plasmid. This expression plasmid was transformed into One shot BL21(DE3) Chemically Competent E. coli, to obtain a transformant called Lp-PLA2/pET-19b/BL21(DE3) comprising a recombinant vector containing a polynucleotide consisting of a nucleotide sequence encoding Lp-PLA2 with a histidine tag from the vector added at the N-terminus.
as §2

[3] = PLD activity (kcat/Km) of lyso-PAF-PLD and site-specific mutants against lyso-PAF; details: substrate lyso-PAF 0 to 5 mM, pH 7.5, 37° C.
Method: As a result, the pre-mutation PLD activity was 1385 (s^−1 mM^−1), but the mutant having G substituted for the M in the 45th position of SEQ ID NO: 9 (called M45G) and the similarly-named mutants M45A, M45L and M45D had PLD activities of 3059, 11411, 3284 and 4557 (s^−1mM^−1), respectively.
As a result, the PLD activity was 1385 (s^−1mM^−1) before the mutation, but the mutant having G substituted for F in the 257th position of […] (called F257G) and the similarly-named mutants F257E, F257R, F257K and F257W had PLD activities 1200, 1000, 1080, 1020 and 1320, respectively.
The PLD activity of the lyso-PAF-PLD mutants obtained by site-specific mutations was measured as follows. 1.211 g of Tris, 14.7 mg of calcium chloride dihydrate (Wako Pure Chemical Industries, Ltd.), 20 mL of lyso-PAF solution and 2 mL of 1% TODB solution were dissolved in 60 mL of purified water, the pH was adjusted to 7.5 (25° C.) with 1 N HCl, 4 mL of 100 U/mL choline oxidase, 4 mL of 100 U/mL peroxidase solution and 2 mL of 1% 4-AA solution were added and dissolved, and the total was brought to 100 mL with purified water to obtain a PLD activity measurement reagent for lyso-PAF (reaction reagent mixture). The lyso-PAF solution was adjusted so that the lyso-PAF concentration in the reaction reagent mixture was 0 to 5 mM. 3 mL of the reaction reagent mixture was pre-heated for 5 minutes at 37° C., and mixed with 50 μL of a solution of the lyso-PAF-PLD mutant with the introduced site-specific mutation diluted appropriately with 10 mM Tris-HCl (pH 7.5) to initiate a reaction, and the change in absorbance at 546 nm was measured for 1 minute between 8 and 9 minutes after initiation of the reaction. The activity value (μmole/min) was calculated given 36 (cm^2/μmole) as the millimolar extinction coefficient of the quinoneimine dye at 546 nm. The protein content (mg/mL) was calculated by the Bradford method using bovine serum albumin as the standard. Km and kcat were calculated by the Michaelis-Menten formula in accordance with the methods described in the aforementioned Theory and Practice on Enzymes and other Proteins [Tanpakushitsu/Kouso no kiso jikkenhou] and in Voet's Basic Biochemistry (Fourth Ed.) and the like. For purposes of calculation, the molecular weight of the enzyme was given as 33583.

| Molecule | Lp-PLA2 activity value ([1]; sample Citrated pooled plasma) | absorbance change per minute (sensitivity) ([1]; sample Citrated pooled plasma) | Lp-PLA2 activity value ([1]; sample Heparin pooled plasma) | absorbance change per minute (sensitivity) ([1]; sample Heparin pooled plasma) | Lp-PLA2 activity value ([1]; sample Individual serum 16) | absorbance change per minute (sensitivity) ([1]; sample Individual serum 16) | Lp-PLA2 activity value ([1]; sample Pooled serum C) | absorbance change per minute (sensitivity) ([1]; sample Pooled serum C) | Lp-PLA2 activity value ([1]; sample Pooled serum J042) | absorbance change per minute (sensitivity) ([1]; sample Pooled serum J042) | Relative activity ([1]; sample Citrated pooled plasma) | Relative activity ([1]; sample Heparin pooled plasma) | Relative activity ([1]; sample Individual serum 16) | Relative activity ([1]; sample Pooled serum C) | Relative activity ([1]; sample Pooled serum J042) | Lp-PLA2 activity value [2] | absorbance change per minute (sensitivity) [2] | Relative activity [2] | Km [3] | kcat [3] |
| --- | --- | --- | --- | --- | --- | --- | --- | --- | --- | --- | --- | --- | --- | --- | --- | --- | --- | --- | --- | --- |
| CCCCCCCCCCCCCCCCCCOC[C@H](COP(=O)([O-])OCC[N+](C)(C)C)OC(C)=O [PAF(C18), 1-O-Octadecyl-2-acetyl-sn-glycero-3-phosphocholine] | 27.8 nmol/min/mL | 19.6 ΔmAbs/min | 38.7 nmol/min/mL | 27.3 ΔmAbs/min | 79.3 nmol/min/mL | 56.0 ΔmAbs/min | 35.6 nmol/min/mL | 25.1 ΔmAbs/min | 35.4 nmol/min/mL | 25.0 ΔmAbs/min | 83% | 87% | 84% | 87% | 87% | 74.1 nmol/min/mL | 52.3 ΔmAbs/min | 56% |  |  |
| CCCCCCCCCCCCCCCC(=O)OC[C@H](COP(=O)([O-])OCC[N+](C)(C)C)OC(C)=O [1-Palmitoyl-2-acetyl-sn-glycero-PC, 1-Palmitoyl-2-acetyl-sn-glycero-3-phosphocholine] | 34.4 nmol/min/mL | 24.3 ΔmAbs/min | 44.1 nmol/min/mL | 31.1 ΔmAbs/min | 82.3 nmol/min/mL | 58.1 ΔmAbs/min | 44.9 nmol/min/mL | 31.7 ΔmAbs/min | 45.2 nmol/min/mL | 31.9 ΔmAbs/min | 103% | 99% | 87% | 110% | 111% | 98.7 nmol/min/mL | 69.7 ΔmAbs/min | 75% |  |  |
| M45G: lyso-PAF-PLD mutant, G substituted for M in the 45th position of SEQ ID NO: 9 (protein) MTTRTTDNPWLDARVLNMAHAGGENEAPANTLYAFKRAVKLGANGLELDVQSTKDDQLVVIHNATVDQTTDGTGKVRDLTFEQVHELDAAYNFIPGRHAVPGEPPESYPLRGVRTGEKKPPPGYQPSDFAIPKLADVLEAFPRTPINIEIKGTSDADIPSFLHNAKLLARLLKKTGRTDFIVTSFNDLAVAKFHLLAPDIPIAPGMAGLAAYFLLGVKPMHGTVALQIPVRYQGLEIATPEFIRRAHADGYAVHVWFSGTAPDDEATYNRIIDSCADGLMPAYPALLERILDERGIERPGRPGVDPCG |  |  |  |  |  |  |  |  |  |  |  |  |  |  |  |  |  |  | 27 µM | 82 s⁻¹ |

From US10900063B2, “Measurement of Lp-PLA2 activity” (ASAHI KASEI PHARMA CORPORATION, priority 2016, dated 2021)
